The record followed here is patent publication US8916599B2, “1H-benz imidazole-5-carboxamides as anti-inflammatory agents” (Orexo AB, priority 2008, dated 2014).

The target in one experiment is T1, recombinant human mPGES-1 (Homo sapiens, UniProt O14684).
T1 construct: made in house; host or cells: Rosetta E. coli (microsomal/membrane fraction)
T1 sequence (O14684 1-152): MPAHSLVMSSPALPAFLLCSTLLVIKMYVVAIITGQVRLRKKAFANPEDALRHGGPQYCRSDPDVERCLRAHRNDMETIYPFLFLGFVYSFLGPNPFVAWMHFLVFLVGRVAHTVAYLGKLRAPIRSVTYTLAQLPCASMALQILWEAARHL
In words: mPGES-1 inhibition test (microsomes, PGH2 substrate, HTRF detection of PGE2). The class given is biochemical. Conditions: inhibition of mPGES-1 at 1 μM (marked in cell). In a few lines: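 Microsomes from E. coli Rosetta expressing the enzyme, in 0.1 M KPi pH 7.4 with 2.5 mM GSH, were preincubated 25 min at room temperature with inhibitor in DMSO. PGH2 was added, the reaction stopped after one minute with acidified FeCl2, and PGE2 quantified by HTRF after 750-fold dilution.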
In general, inhibition refers to the percentage by which the read-out fell short of the control. In the case of `CC(C)Oc1cc2c(cc1C(=O)NC1CCCCC1)nc(Nc1c(Cl)ccc(Cl)c1F)n2C` [Example 624, 2-(3,6-Dichloro-2-fluoro-phenylamino)-6-isopropoxy-N-cyclohexyl-1-methyl-1H-benzimidazole-5-carboxamide], the inhibition at 1 µM was found to be 100%.

For the compound `Cc1ccc(Cl)c(Nc2nc3cc(C(=O)N[C@H]4CC[C@H](C(F)(F)F)CC4)c(F)cc3n2C)c1F` [Example 629, 2-(6-Chloro-2-fluoro-3-methyl-phenylamino)-6-fluoro-N-(trans-4-trifluoromethyl-cyclohex-1-yl)-1-methyl-1H-benzimidazole-5-carboxamide], the inhibition at 1 µM was 99%.

With `COc1cc2c(cc1C(=O)N[C@H]1CC[C@H](C(F)(F)F)CC1)nc(Nc1c(Cl)ccc(Cl)c1F)n2C` [Example 643, 2-(3,6-Dichloro-2-fluoro-phenylamino)-6-methoxy-N-(trans-4-trifluoromethyl-cyclohex-1-yl)-1-methyl-1H-benzimidazole-5-carboxamide], the inhibition at 1 µM came to 100%.

The same experiment, now with this note: inhibition of mPGES-1 at 10 μM.
With `N[C@H]1C[C@H](n2c(Nc3c(Cl)cccc3Cl)nc3cc(C(=O)Nc4cc(Cl)ccn4)ccc32)C1` [Example 270, 2-(2,6-Dichloro-phenylamino)-1-(trans-3-amino-cyclobutyl)-1H-benzimidazole-5-carboxylic acid (4-chloro-pyridin-2-yl)-amide], the inhibition at 10 µM was found to be 96%.

As for `Cc1cc(NC(=O)c2cc3nc(Nc4c(Cl)cccc4Cl)n(C)c3cc2F)ncc1Cl` [Example 127, 2-(2,6-Dichloro-phenylamino)-6-fluoro-1-methyl-1H-benzimidazole-5-carboxylic acid (5-chloro-4-methyl-pyridin-2-yl)-amide], the inhibition at 10 µM came to 100%.

For `NCCCn1c(Nc2c(Cl)cccc2Cl)nc2cc(C(=O)Nc3cc(Cl)ccn3)ccc21` [Example 208, 2-(2,6-Dichloro-phenylamino)-1-(3-amino-propyl)-1H-benzimidazole-5-carboxylic acid (4-chloro-pyridin-2-yl)-amide(trifluoro-acetate)], the inhibition at 10 µM was 100%.

For `CCCC[C@H](C)NC(=O)c1cc2nc(Nc3c(Cl)cccc3Cl)[nH]c2cc1F` [Example 443, (S)-2-(2,6-Dichlorophenylamino)-6-fluoro-N-(hexan-2-yl)-1H-benzimidazole-5-carboxamide], the inhibition at 10 µM came to 100%.

Turning to `CCNC(=O)c1cc(Br)c2c(c1)nc(Nc1c(Cl)cccc1Cl)n2C` [Example 352, 7-Bromo-2-(2,6-dichloro-phenylamino)-1-methyl-1H-benzimidazole-5-carboxylic acid ethylamide], the inhibition at 10 µM amounted to 71%.

As to `Cn1c(Nc2c(Cl)cccc2Cl)nc2cc(C(=O)NCc3ccc(C(F)(F)F)cn3)ccc21` [Example 246, 2-(2,6-Dichloro-phenylamino)-1-methyl-1H-benzimidazole-5-carboxylic acid (5-trifluoromethyl-pyridin-2-ylmethyl)-amide], the inhibition at 10 µM was found to be 100%.

As to `O=C(Nc1cc(Cl)ccn1)c1cc2[nH]c(Nc3c(Cl)cccc3Cl)nc2cc1F` [Example 142, 2-(2,6-Dichloro-phenylamino)-6-fluoro-3H-benzimidazole-5-carboxylic acid (4-chloro-pyridin-2-yl)-amide], the inhibition at 10 µM was 100%.

In the case of `C[C@@H]1CCC(NC(=O)c2cc3nc(Nc4c(Cl)cccc4Cl)n(C)c3cc2F)C1` (stereo partly drawn) [Example 175, 2-(2,6-Dichloro-phenylamino)-6-fluoro-1-methyl-1H-benzimidazole-5-carboxylic acid ((3R)-3-methyl-cyclopentyl)-amide], the inhibition at 10 µM was 100%.

For `Cc1cc(NC(=O)c2ccc3[nH]c(Nc4c(Cl)cccc4Cl)nc3c2)ncc1F` [Example 189, 2-(2,6-Dichloro-phenylamino)-1H-benzimidazole-5-carboxylic acid (5-fluoro-4-methyl-pyridin-2-yl)-amide], the inhibition at 10 µM was found to be 94%.

As to `CC(C)Oc1cc2[nH]c(Nc3c(Cl)ccc(Cl)c3F)nc2cc1C(=O)NC1CCC(C)(C)CC1` [Example 618, 2-(3,6-Dichloro-2-fluoro-phenylamino)-6-isopropoxy-N-(4,4-dimethyl-cyclohex-1-yl)-1H-benzimidazole-5-carboxamide], the inhibition at 10 µM came out at 91%.

Consider “N-(4-Bromophenyl)-1-methyl-2-(2-(4-morpholino)phenylamino)-1H-benzimidazole-5-carboxamide [Example 555]”, for which the “% inhib.” value is on record as 70%.

`CC(C)NC(=O)c1cc(Br)c2[nH]c(Nc3c(Cl)cccc3Cl)nc2c1` [Example 570, 7-Bromo-N-isopropyl-2-(2,6-dichlorophenylamino)-1H-benzimidazole-5-carboxamide]: the inhibition at 10 µM amounted to 84%.

Consider `Cn1c(Nc2c(Cl)cccc2Cl)nc2cc(C(=O)Nc3cccc(Cl)c3)cc(Br)c21` [Example 405, 7-Bromo-N-(3-chlorophenyl)-2-(2,6-dichlorophenylamino)-1-methyl-1H-benzimidazole-5-carboxamide], for which the inhibition at 10 µM is 100%.

Take `CC(C)Oc1cc2[nH]c(Nc3c(Cl)ccc(Cl)c3F)nc2cc1C(=O)Nc1ccc(Br)cc1` [Example 610, 2-(3,6-Dichloro-2-fluoro-phenylamino)-N-(4-bromo-phenyl)-6-isopropoxy-1H-benzimidazole-5-carboxamide]: the inhibition at 10 µM amounted to 87%.

`O=C(NC1CCC(C(F)(F)F)CC1)c1cc2nc(Nc3c(F)ccc(Cl)c3Cl)[nH]c2cc1OCC(F)(F)F` (stereo not drawn) [Example 591, 2-(2,3-Dichloro-6-fluoro-phenylamino)-6-(2,2,2-trifluoro-ethoxy)-N-(4-trans-trifluoromethyl-cyclohex-1-yl) 1H-benzimidazole-5-carboxamide]: the inhibition at 10 µM turned out to be 99%.

As for `O=C(NCC1CCCO1)c1ccc2[nH]c(Nc3c(Cl)cccc3Cl)nc2c1` (stereo not shown) [Example 234, 2-(2,6-Dichloro-phenylamino)-1H-benzimidazole-5-carboxylic acid (tetrahydro-furan-2-ylmethyl)-amide], the inhibition at 10 µM stood at 77%.

Turning to `COc1cc2c(cc1C(=O)Nc1ccc(Br)cc1)nc(Nc1cc(C(F)(F)F)ccc1C(F)(F)F)n2C` [Example 640, 2-(2,5-Di-(trifluoromethyl)-phenylamino)-N-(4-bromphenyl)-6-methoxy-1-methyl-1H-benzimidazol-5-carboxamide], the inhibition at 10 µM was 100%.

Take `Cn1c(Nc2c(Cl)cccc2Cl)nc2cc(C(=O)NCc3cc(C(F)(F)F)ccn3)ccc21` [Example 245, 2-(2,6-Dichloro-phenylamino)-1-methyl-1H-benzimidazole-5-carboxylic acid (4-trifluoromethyl-pyridin-2-ylmethyl)-amide]: the inhibition at 10 µM was found to be 97%.

For `CN(C)c1cccnc1CNC(=O)c1cc2nc(Nc3c(Cl)cccc3Cl)n(C)c2cc1F` [Example 474, 2-(2,6-Dichlorophenylamino)-N-((3-dimethylamino-pyridin-2-yl)-methyl)-6-fluoro-1-methyl-1H-benzimidazole-5-carboxamide], the inhibition at 10 µM was found to be 100%.

Regarding `N#Cc1cccc(NC(=O)c2ccc3[nH]c(Nc4c(Cl)cccc4Cl)nc3c2)c1` [Example 22, 2-(2,6-Dichloro-phenylamino)-1H-benzimidazole-5-carboxylic acid (3-cyano-phenyl)-amide], the inhibition at 10 µM was determined as 100%.

Regarding `O=C(NCc1cc(C(F)(F)F)ccn1)c1ccc2[nH]c(Nc3c(Cl)cccc3Cl)nc2c1` [Example 221, 2-(2,6-Dichloro-phenylamino)-1H-benzimidazole-5-carboxylic acid (4-trifluoromethyl-pyridin-2-ylmethyl)-amide], the inhibition at 10 µM came out at 87%.

For `Cn1c(Nc2c(Cl)cccc2Cl)nc2cc(C(=O)Nc3cccc(Cl)n3)ccc21` [Example 347, 2-(2,6-Dichloro-phenylamino)-1-methyl-1H-benzimidazole-5-carboxylic acid (6-chloro-pyridin-2-yl)-amide], the inhibition at 10 µM turned out to be 100%.

On to `Cc1cnc(NC(=O)c2cc3nc(Nc4c(Cl)cccc4Cl)n(C)c3cc2F)cc1C` [Example 421, 2-(2,6-Dichlorophenylamino)-N-(4,5-dimethylpyridin-2-yl)-6-fluoro-1-methyl-1H-benzimidazole-5-carboxamide], for which the inhibition at 10 µM is 99%.

Turning to `Cc1nc(NC(=O)c2ccc3[nH]c(Nc4c(Cl)cccc4Cl)nc3c2)sc1C` [Example 77, 2-(2,6-Dichloro-phenylamino)-1H-benzimidazole-5-carboxylic acid (4,5-dimethyl-thiazol-2-yl)-amide], the inhibition at 10 µM worked out at 96%.

Regarding `Cc1cc2[nH]c(Nc3c(Cl)cccc3Cl)nc2cc1C(=O)Nc1ccc(Cl)c(F)c1` [Example 145, 2-(2,6-Dichloro-phenylamino)-6-methyl-1H-benzimidazole-5-carboxylic acid (4-chloro-3-fluorophenyl)-amide], the inhibition at 10 µM was found to be 100%.

In the case of `COc1cc2[nH]c(Nc3c(Cl)ccc(Cl)c3F)nc2cc1C(=O)NC1CCC(C)(C)CC1` [Example 616, 2-(3,6-Dichloro-2-fluoro-phenylamino)-N-(4,4-dimethyl-cyclohex-1-yl)-6-methoxy-1H-benzimidazole-5-carboxamide], the inhibition at 10 µM turned out to be 100%.

For the compound `Cn1c(Nc2c(Cl)cccc2Cl)nc2cc(C(=O)NCCc3ccncc3)ccc21` [Example 260, 2-(2,6-Dichloro-phenylamino)-1-methyl-1H-benzimidazole-5-carboxylic acid (2-pyridin-4-yl-ethyl)-amide], the inhibition at 10 µM is 84%.

Regarding `CCOc1cc2c(cc1C(=O)NC1CCC(C)(C)CC1)nc(Nc1c(Cl)ccc(Cl)c1F)n2C` [Example 607, 2-(3,6-Dichloro-2-fluoro-phenylamino)-6-ethoxy-N-(4,4-dimethyl-cyclohex-1-yl)-1-methyl-1H-benzimidazole-5-carboxamide], the inhibition at 10 µM was 97%.
